Test [1] has as its system SKBR3 (PI3Kα-Wild Type) cell line. As to the kind of experiment: HTRF phospho-AKT(S473) cell assay in SKBR3 cells. The test is classed as cell-based, human. Conditions: Homo sapiens, SK-BR-3; SKBR3 (PI3Kα-Wild Type) cells, HTRF phospho-AKT(S473), 2 hours compound incubation, PDGF-BB stimulated. Put shortly:
(§1)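 Cells plated overnight (T47D in RPMI/10% FBS/0.2 units/mL insulin; SKBR3 in McCoy's 5A/10% FBS), then given 12-point 1:3 compound series (top 5 μM T47D, 10 μM SKBR3; ≤0.5% DMSO) for 2 h at 37° C. SKBR3 stimulated with 70 ng/ml PDGF-BB for final 15 min. Lysate pAKT(S473) by HTRF; IC50 calculated.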
For orientation: TR-FRET usually uses a lanthanide donor and a delayed reading to cut background.

Test [2] relates to T47D (PI3Kα-H1047R) cell line. Description: HTRF phospho-AKT(S473) cell assay in T47D cells. The format is cell-based, human. The conditions noted are these: Homo sapiens; T47D (PI3Kα-H1047R) cells, HTRF phospho-AKT(S473), 2 hours compound incubation. In short, it runs like this:
as §1

For orientation: IC50 means the point on the concentration scale where inhibition reaches its midpoint.

Take `Cc1cc([C@@H](C)Nc2ccc(Cl)nc2C(=O)NS(C)(=O)=O)c2nc(N3CCC(c4ccn[nH]4)CC3)n(C)c(=O)c2c1` [Compound 165, (R)-3-((1-(2-(4-(1H-pyrazol-5-yl)piperidin-1-yl)-3,6-dimethyl-4-oxo-3,4-dihydroquinazolin-8-yl)ethyl)amino)-6-chloro-N-(methylsulfonyl) picolinamide]: the values for the IC50 in test [1] and in test [2] were 1000 to 5000 nM and < 250 nM, respectively.

As to `Cc1cc([C@@H](C)Nc2ccc(Cl)nc2C(=O)NS(C)(=O)=O)c2nc(N3CCn4nc(C)cc4C3)n(C)c(=O)c2c1` [Compound 166], the IC50 in test [1] was 1000 to 5000 nM; in test [2] it was < 250 nM.

Turning to `Cc1cc([C@@H](C)Nc2ccc(Cl)nc2C(=O)NS(C)(=O)=O)c2nc(N3CCC(c4cn[nH]c4)CC3)n(C)c(=O)c2c1` [Compound 167, (R)-3-((1-(2-(4-(1H-pyrazol-4-yl)piperidin-1-yl)-3,6-dimethyl-4-oxo-3,4-dihydroquinazolin-8-yl)ethyl)amino)-6-chloro-N-(methylsulfonyl) picolinamide], the IC50 is 1000 to 5000 nM in test [1] and < 250 nM in test [2].

As to `Cc1cc([C@@H](C)Nc2ccc(Cl)nc2C(=O)NS(C)(=O)=O)c2nc(N3CCN(c4ncccn4)CC3)n(C)c(=O)c2c1` [Compound 169, (R)-6-chloro-3-((1-(3,6-dimethyl-4-oxo-2-(4-(pyrimidin-2-yl)piperazin-1-yl)-3,4-dihydroquinazolin-8-yl)ethyl)amino)-N-(methylsulfonyl) picolinamide], the IC50 is 1000 to 5000 nM in test [1] and < 250 nM in test [2].

In the case of `Cc1cc([C@@H](C)Nc2ccc(Cl)nc2C(=O)NS(=O)(=O)c2ccncc2)c2nc(N3Cc4ccc(F)cc4C3)n(C)c(=O)c2c1` [Compound 170, (R)-6-chloro-3-((1-(2-(5-fluoroisoindolin-2-yl)-3,6-dimethyl-4-oxo-3,4-dihydroquinazolin-8-yl)ethyl)amino)-N-(pyridin-4-ylsulfonyl)picolinamide], the IC50 in test [1] was ≥ 5000 nM; in test [2], < 250 nM.

As for `Cc1cc([C@@H](C)Nc2ccc(Cl)nc2C(=O)NS(C)(=O)=O)c2nc(-c3cnn(-c4ccccc4)c3)n(C)c(=O)c2c1` [Compound 171, (R)-6-chloro-3-((1-(3,6-dimethyl-4-oxo-2-(1-phenyl-1H-pyrazol-4-yl)-3,4-dihydroquinazolin-8-yl)ethyl)amino)-N-(methylsulfonyl) picolinamide], the IC50 in test [1] is 1000 to 5000 nM; in test [2], < 250 nM.

`Cc1cc([C@@H](C)Nc2ccc(Cl)nc2C(=O)NS(C)(=O)=O)c2nc(N3Cc4cnn(C(F)F)c4C3)n(C)c(=O)c2c1` [Compound 172, (R)-6-chloro-3-((1-(2-(1-(difluoromethyl)-4,6-dihydropyrrolo[3,4-c]pyrazol-5(1H)-yl)-3,6-dimethyl-4-oxo-3,4-dihydroquinazolin-8-yl)ethyl)amino)-N-(methylsulfonyl) picolinamide]: the IC50 was 1000 to 5000 nM in test [1] and < 250 nM in test [2].

Take `Cc1cc([C@@H](C)Nc2ccc(Cl)nc2C(=O)NS(=O)(=O)C2COC2)c2nc(N3Cc4ccc(F)cc4C3)n(C)c(=O)c2c1` [Compound 173, (R)-6-chloro-3-((1-(2-(5-fluoroisoindolin-2-yl)-3,6-dimethyl-4-oxo-3,4-dihydroquinazolin-8-yl)ethyl)amino)-N-(oxetan-3-ylsulfonyl)picolinamide]: the IC50 in test [1] is 1000 to 5000 nM; in test [2], < 250 nM.

With `Cc1cc([C@@H](C)Nc2ccc(Cl)nc2C(=O)NS(C)(=O)=O)c2nc(N3CCN(c4ccc(N)nc4)CC3)n(C)c(=O)c2c1` [Compound 174, (R)-3-((1-(2-(4-(6-aminopyridin-3-yl)piperazin-1-yl)-3,6-dimethyl-4-oxo-3,4-dihydroquinazolin-8-yl)ethyl)amino)-6-chloro-N-(methylsulfonyl) picolinamide], the IC50 in test [1] is 1000 to 5000 nM; in test [2] it was < 250 nM.

In the case of `CC(=O)N1CCN(c2ccc(-c3nc4c([C@@H](C)Nc5ccc(Cl)nc5C(=O)NS(C)(=O)=O)cc(C)cc4c(=O)n3C)cn2)CC1` [Compound 175, (R)-3-((1-(2-(6-(4-acetylpiperazin-1-yl)pyridin-3-yl)-3,6-dimethyl-4-oxo-3,4-dihydroquinazolin-8-yl)ethyl)amino)-6-chloro-N-(methylsulfonyl) picolinamide], the IC50 in test [1] was 1000 to 5000 nM; in test [2] it was < 250 nM.

As to `Cc1cc([C@@H](C)Nc2ccc(Cl)nc2C(=O)NS(C)(=O)=O)c2nc(N3Cc4cn(C(F)F)nc4C3)n(C)c(=O)c2c1` [Compound 176, (R)-6-chloro-3-((1-(2-(2-(difluoromethyl)-2,6-dihydropyrrolo[3,4-c]pyrazol-5(4H)-yl)-3,6-dimethyl-4-oxo-3,4-dihydroquinazolin-8-yl)ethyl)amino)-N-(methylsulfonyl) picolinamide], the IC50 in test [1] was 1000 to 5000 nM; in test [2], < 250 nM.

For `Cc1cc([C@@H](C)Nc2ccc(Cl)nc2C(=O)NS(C)(=O)=O)c2nc(-c3ccc(N4CCC(O)CC4)nc3)n(C)c(=O)c2c1` [Compound 177, (R)-6-chloro-3-((1-(2-(6-(4-hydroxypiperidin-1-yl)pyridin-3-yl)-3,6-dimethyl-4-oxo-3,4-dihydroquinazolin-8-yl)ethyl)amino)-N-(methylsulfonyl) picolinamide], the IC50 is 1000 to 5000 nM in test [1] and < 250 nM in test [2].

Regarding `Cc1cc([C@@H](C)Nc2ccc(Cl)nc2C(=O)NS(C)(=O)=O)c2nc(N3CCC(c4ccn(C)n4)CC3)n(C)c(=O)c2c1` [Compound 178, (R)-6-chloro-3-((1-(3,6-dimethyl-2-(4-(1-methyl-1H-pyrazol-3-yl)piperidin-1-yl)-4-oxo-3,4-dihydroquinazolin-8-yl)ethyl)amino)-N-(methylsulfonyl) picolinamide], the results for the 50% inhibitory concentration (IC50) in test [1] and in test [2] were 1000 to 5000 nM and < 250 nM, respectively.

Regarding `Cc1cc([C@@H](C)Nc2ccc(Cl)nc2C(=O)NS(C)(=O)=O)c2nc(N3Cc4cnn(C5(C(F)(F)F)CC5)c4C3)n(C)c(=O)c2c1` [Compound 179, (R)-6-chloro-3-((1-(3,6-dimethyl-4-oxo-2-(1-(1-(trifluoromethyl)cyclopropyl)-4,6-dihydropyrrolo[3,4-c]pyrazol-5(1H)-yl)-3,4-dihydroquinazolin-8-yl)ethyl)amino)-N-(methylsulfonyl) picolinamide], the results for the IC50 in test [1] and in test [2] were 1000 to 5000 nM and < 250 nM, respectively.

With `Cc1cc([C@@H](C)Nc2ccc(Cl)nc2C(=O)NS(C)(=O)=O)c2nc(C3CCN(c4ccc(C#N)nc4)CC3)n(C)c(=O)c2c1` [Compound 180, (R)-6-chloro-3-((1-(2-(1-(6-cyanopyridin-3-yl)piperidin-4-yl)-3,6-dimethyl-4-oxo-3,4-dihydroquinazolin-8-yl)ethyl)amino)-N-(methylsulfonyl) picolinamide], the IC50 in test [1] was 1000 to 5000 nM; in test [2] it was < 250 nM.

As to `Cc1cc([C@@H](C)Nc2ccc(Cl)nc2C(=O)NS(C)(=O)=O)c2nc(N3CCC(c4cnn(C)c4)CC3)n(C)c(=O)c2c1` [Compound 181, (R)-6-chloro-3-((1-(3,6-dimethyl-2-(4-(1-methyl-1H-pyrazol-4-yl)piperidin-1-yl)-4-oxo-3,4-dihydroquinazolin-8-yl)ethyl)amino)-N-(methylsulfonyl) picolinamide], the IC50 in test [1] is 1000 to 5000 nM; in test [2], < 250 nM.

Regarding `Cc1cc([C@@H](C)Nc2ccc(Cl)nc2C(=O)NS(C)(=O)=O)c2nc(N3CCN(c4ccccn4)CC3)n(C)c(=O)c2c1` [Compound 182, (R)-6-chloro-3-((1-(3,6-dimethyl-4-oxo-2-(4-(pyridin-2-yl)piperazin-1-yl)-3,4-dihydroquinazolin-8-yl)ethyl)amino)-N-(methylsulfonyl) picolinamide], the results for the IC50 in test [1] and in test [2] were 1000 to 5000 nM and < 250 nM, respectively.

Turning to `Cc1cc([C@@H](C)Nc2ccc(Cl)nc2C(=O)NS(C)(=O)=O)c2nc(N3CCN(c4ccccc4)CC3)n(C)c(=O)c2c1` [Compound 183, (R)-6-chloro-3-((1-(3,6-dimethyl-4-oxo-2-(4-phenylpiperazin-1-yl)-3,4-dihydroquinazolin-8-yl)ethyl)amino)-N-(methylsulfonyl) picolinamide], the IC50 in test [1] was 1000 to 5000 nM; in test [2], < 250 nM.

On to `Cc1cc([C@@H](C)Nc2ccc(Cl)nc2C(=O)NS(C)(=O)=O)c2nc(N3CCN(c4ncc(C#N)cc4C)CC3)n(C)c(=O)c2c1` [Compound 184, (R)-6-chloro-3-((1-(2-(4-(5-cyano-3-methylpyridin-2-yl)piperazin-1-yl)-3,6-dimethyl-4-oxo-3,4-dihydroquinazolin-8-yl)ethyl)amino)-N-(methylsulfonyl) picolinamide], for which the IC50 in test [1] is 1000 to 5000 nM; in test [2] it was < 250 nM.

On to `Cc1cc([C@@H](C)Nc2ccc(Cl)nc2C(=O)NS(C)(=O)=O)c2nc(N3Cc4cn(C5(C(F)(F)F)CC5)nc4C3)n(C)c(=O)c2c1` [Compound 185, (R)-6-chloro-3-((1-(3,6-dimethyl-4-oxo-2-(2-(1-(trifluoromethyl)cyclopropyl)-2,6-dihydropyrrolo[3,4-c]pyrazol-5(4H)-yl)-3,4-dihydroquinazolin-8-yl)ethyl)amino)-N-(methylsulfonyl) picolinamide], for which the IC50 is 1000 to 5000 nM in test [1] and < 250 nM in test [2].

Take `Cc1cc([C@@H](C)Nc2ccc(Cl)nc2C(=O)NS(C)(=O)=O)c2nc(C3CCN(c4ccc(C#N)cn4)CC3)n(C)c(=O)c2c1` [Compound 186, (R)-6-chloro-3-((1-(2-(1-(5-cyanopyridin-2-yl)piperidin-4-yl)-3,6-dimethyl-4-oxo-3,4-dihydroquinazolin-8-yl)ethyl)amino)-N-(methylsulfonyl) picolinamide]: the IC50 in test [1] was 1000 to 5000 nM; in test [2], < 250 nM.

These data come from US12281122B1, “PI3K inhibitors” (Cogent Biosciences, Inc., priority 2023, dated 2025).
